Results taken from PMC8222254, “Self-assembly of an anion receptor with metal-dependent kinase inhibition and potent in vitro anti-cancer properties” (Nature Communications, 2021).
“And” between values parts separate entries of the source, which are not always exact repeats. Equal entries are not always repeated.

Experiments:
Experiment in all cases: Kinase inhibition screen, cell-free 33P ATP assay at 10 μM
Type in all cases: biochemical
[1] = target: T1, 140 purified human kinases (Homo sapiens, UniProt O43318)
T1 sequence (O43318 1-606): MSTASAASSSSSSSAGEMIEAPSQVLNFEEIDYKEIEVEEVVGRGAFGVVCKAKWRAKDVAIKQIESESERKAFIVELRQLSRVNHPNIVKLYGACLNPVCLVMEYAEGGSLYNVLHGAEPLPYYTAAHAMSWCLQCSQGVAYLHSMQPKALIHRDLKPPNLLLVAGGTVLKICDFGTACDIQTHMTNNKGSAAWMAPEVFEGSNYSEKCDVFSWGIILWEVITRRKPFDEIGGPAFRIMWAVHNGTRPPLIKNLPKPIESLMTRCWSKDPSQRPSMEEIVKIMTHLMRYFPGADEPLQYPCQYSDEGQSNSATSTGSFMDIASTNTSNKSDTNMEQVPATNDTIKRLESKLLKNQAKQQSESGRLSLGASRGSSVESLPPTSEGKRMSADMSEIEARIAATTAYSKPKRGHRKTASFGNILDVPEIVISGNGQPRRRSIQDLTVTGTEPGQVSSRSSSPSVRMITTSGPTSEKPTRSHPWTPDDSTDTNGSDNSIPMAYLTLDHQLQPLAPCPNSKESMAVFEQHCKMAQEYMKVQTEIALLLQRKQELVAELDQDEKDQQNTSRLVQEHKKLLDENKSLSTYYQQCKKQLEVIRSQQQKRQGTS
How it was run: (§1)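 Radiometric ^33P ATP cell-free format with purified enzymes; both complexes run at 10 μM in duplicate, results plotted on a kinome map via HGNC symbols.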

[2] = target: 140 purified human kinases (Homo sapiens, UniProt O96017)
Sequence of 140 purified human kinases (Homo sapiens, UniProt O96017) (O96017 whole entry): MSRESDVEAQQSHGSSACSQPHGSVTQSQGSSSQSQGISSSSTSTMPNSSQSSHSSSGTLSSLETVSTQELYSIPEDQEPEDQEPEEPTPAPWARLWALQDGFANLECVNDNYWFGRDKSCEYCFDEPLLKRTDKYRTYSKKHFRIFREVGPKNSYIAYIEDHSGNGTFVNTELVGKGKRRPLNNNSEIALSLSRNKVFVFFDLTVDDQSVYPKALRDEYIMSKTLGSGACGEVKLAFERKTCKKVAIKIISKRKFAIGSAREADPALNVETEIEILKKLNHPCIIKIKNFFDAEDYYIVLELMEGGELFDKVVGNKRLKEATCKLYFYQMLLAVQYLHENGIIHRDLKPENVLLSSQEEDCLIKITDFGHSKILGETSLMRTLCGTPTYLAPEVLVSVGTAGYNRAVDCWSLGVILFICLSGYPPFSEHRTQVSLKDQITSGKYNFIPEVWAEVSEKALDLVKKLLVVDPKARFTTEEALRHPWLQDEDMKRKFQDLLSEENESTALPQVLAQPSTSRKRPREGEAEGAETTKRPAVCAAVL
How it was run: as §1

[3] = target: 140 purified human kinases (Homo sapiens, UniProt P07947)
Sequence of 140 purified human kinases (Homo sapiens, UniProt P07947) (P07947 whole entry): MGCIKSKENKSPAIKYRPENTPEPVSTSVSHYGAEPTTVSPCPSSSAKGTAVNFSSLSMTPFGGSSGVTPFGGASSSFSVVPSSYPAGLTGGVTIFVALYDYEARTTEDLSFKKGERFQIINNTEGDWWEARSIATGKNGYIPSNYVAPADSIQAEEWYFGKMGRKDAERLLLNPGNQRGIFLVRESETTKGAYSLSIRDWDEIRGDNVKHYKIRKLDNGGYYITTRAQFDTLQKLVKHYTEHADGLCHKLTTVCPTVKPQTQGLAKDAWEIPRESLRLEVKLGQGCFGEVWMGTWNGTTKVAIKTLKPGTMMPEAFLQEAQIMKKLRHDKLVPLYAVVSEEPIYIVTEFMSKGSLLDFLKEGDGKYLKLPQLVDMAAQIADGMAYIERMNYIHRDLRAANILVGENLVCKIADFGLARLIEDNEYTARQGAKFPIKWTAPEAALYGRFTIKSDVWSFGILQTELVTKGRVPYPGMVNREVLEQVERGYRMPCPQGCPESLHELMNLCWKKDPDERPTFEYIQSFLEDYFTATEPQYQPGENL
How it was run: as §1

[4] = target: 140 purified human kinases (Homo sapiens, UniProt P31749); conditions: PKBa
Sequence of 140 purified human kinases (Homo sapiens, UniProt P31749) (P31749 whole entry): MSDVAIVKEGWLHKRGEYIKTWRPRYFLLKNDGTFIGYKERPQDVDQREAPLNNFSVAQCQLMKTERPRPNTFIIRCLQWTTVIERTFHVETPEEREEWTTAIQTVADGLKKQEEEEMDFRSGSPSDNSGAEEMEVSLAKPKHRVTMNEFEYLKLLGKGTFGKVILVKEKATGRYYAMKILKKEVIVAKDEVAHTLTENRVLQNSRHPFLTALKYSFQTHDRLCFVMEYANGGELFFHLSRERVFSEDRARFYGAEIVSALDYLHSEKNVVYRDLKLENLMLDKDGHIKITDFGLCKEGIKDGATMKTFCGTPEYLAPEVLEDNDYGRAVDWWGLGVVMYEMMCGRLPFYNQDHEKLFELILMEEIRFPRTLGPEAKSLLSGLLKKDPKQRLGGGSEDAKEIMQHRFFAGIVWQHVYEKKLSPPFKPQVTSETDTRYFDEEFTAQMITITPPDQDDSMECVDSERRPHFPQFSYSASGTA
How it was run: as §1

[5] = target: T2, 140 purified human kinases (Homo sapiens, UniProt P52564)
T2 sequence (P52564 1-334): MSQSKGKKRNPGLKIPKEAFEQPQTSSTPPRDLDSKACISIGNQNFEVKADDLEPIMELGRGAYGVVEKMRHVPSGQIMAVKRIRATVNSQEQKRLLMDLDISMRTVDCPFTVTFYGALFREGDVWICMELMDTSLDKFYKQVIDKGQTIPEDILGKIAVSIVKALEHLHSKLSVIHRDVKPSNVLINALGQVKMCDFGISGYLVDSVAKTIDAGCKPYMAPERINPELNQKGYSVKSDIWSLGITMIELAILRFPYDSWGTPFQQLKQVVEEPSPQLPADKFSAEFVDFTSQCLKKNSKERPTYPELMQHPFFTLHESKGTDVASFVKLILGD
How it was run: as §1

[6] = target: 140 purified human kinases (Homo sapiens, UniProt P68400)
Sequence of 140 purified human kinases (Homo sapiens, UniProt P68400) (P68400 whole entry): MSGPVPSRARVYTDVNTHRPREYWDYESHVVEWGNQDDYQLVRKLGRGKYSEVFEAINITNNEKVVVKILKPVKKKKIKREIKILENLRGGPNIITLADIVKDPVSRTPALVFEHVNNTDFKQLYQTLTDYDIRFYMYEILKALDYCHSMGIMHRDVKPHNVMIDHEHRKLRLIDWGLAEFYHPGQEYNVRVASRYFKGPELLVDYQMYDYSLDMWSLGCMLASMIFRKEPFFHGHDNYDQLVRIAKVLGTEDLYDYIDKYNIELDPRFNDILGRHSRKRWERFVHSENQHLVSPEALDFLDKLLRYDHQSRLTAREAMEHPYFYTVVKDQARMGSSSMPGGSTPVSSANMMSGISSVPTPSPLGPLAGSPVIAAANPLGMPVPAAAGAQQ
How it was run: as §1

[7] = target: 140 purified human kinases (Homo sapiens, UniProt Q13131); conditions: AMPK (hum); for % Activity inhibition Mean / % Activity inhibition Run 1 / % Activity inhibition Run 2 / % Activity remaining Run 1 / % Activity remaining Run 2: 10 µM
Sequence of 140 purified human kinases (Homo sapiens, UniProt Q13131) (Q13131 whole entry): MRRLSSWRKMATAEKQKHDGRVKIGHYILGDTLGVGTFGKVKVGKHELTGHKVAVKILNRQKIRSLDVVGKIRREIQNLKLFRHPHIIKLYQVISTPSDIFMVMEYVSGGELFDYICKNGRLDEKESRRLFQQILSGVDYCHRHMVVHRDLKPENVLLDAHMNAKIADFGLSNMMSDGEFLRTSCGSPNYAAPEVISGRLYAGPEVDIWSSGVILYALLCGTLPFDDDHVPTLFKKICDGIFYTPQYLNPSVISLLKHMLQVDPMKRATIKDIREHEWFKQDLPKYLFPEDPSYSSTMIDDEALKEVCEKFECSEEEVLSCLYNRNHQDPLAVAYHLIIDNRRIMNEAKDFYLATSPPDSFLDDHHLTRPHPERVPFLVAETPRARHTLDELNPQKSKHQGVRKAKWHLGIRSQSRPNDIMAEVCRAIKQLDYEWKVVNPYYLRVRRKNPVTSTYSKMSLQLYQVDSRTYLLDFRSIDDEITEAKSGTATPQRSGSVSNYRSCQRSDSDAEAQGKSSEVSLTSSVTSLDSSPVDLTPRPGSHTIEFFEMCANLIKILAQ
How it was run: as §1

[8] = target: 140 purified human kinases (Homo sapiens, UniProt Q15569)
Sequence of 140 purified human kinases (Homo sapiens, UniProt Q15569) (Q15569 whole entry): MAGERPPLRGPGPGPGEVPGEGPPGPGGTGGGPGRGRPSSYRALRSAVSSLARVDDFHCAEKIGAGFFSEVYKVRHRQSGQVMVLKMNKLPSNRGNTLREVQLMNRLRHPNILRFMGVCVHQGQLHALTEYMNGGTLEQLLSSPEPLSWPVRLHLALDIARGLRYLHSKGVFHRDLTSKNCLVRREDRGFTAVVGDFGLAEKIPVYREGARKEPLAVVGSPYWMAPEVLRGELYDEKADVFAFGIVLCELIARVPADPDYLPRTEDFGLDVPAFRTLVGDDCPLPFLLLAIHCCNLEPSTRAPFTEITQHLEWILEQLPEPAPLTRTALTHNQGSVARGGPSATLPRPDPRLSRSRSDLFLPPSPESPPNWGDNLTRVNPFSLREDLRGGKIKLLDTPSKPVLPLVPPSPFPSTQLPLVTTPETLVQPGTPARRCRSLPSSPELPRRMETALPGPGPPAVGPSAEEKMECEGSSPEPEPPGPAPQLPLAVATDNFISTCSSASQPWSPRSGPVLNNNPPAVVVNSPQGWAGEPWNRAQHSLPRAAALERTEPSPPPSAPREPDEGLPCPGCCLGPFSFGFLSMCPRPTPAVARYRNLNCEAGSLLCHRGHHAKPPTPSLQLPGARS
How it was run: as §1

Compound: [Cu+2].[Cu+2].[Cu+2].c1ccc(-c2csc(NCCN(CCNc3nc(-c4ccccn4)cs3)CCNc3nc(-c4ccccn4)cs3)n2)nc1.c1ccc(-c2csc(NCCN(CCNc3nc(-c4ccccn4)cs3)CCNc3nc(-c4ccccn4)cs3)n2)nc1 [[L2Cu3]6+]
- % Inhibition Run 1 ([1]; TAK1): 45.7%
- % Inhibition Run 2 ([1]; TAK1): 51.7%
- % Inhibition, Mean ([1]; TAK1): 49%
- mean % activity ([1]; TAK1): 51%
- % activity ([1]; TAK1, Run 1): 54.3%
- % activity ([1]; TAK1, Run 2): 48.3%
- % Inhibition Run 1 ([2]; CHK2): 86.3%
- % Inhibition Run 2 ([2]; CHK2): 76.4%
- % Inhibition, Mean ([2]; CHK2): 81%
- mean % activity ([2]; CHK2): 19%
- % activity ([2]; CHK2, Run 1): 13.7%
- % activity ([2]; CHK2, Run 2): 23.6%
- % Inhibition Run 1 ([3]; YES1): 12.4%
- % Inhibition Run 2 ([3]; YES1): -9%
- % Inhibition, Mean ([3]; YES1): 1.7%
- mean % activity ([3]; YES1): 98%
- % activity ([3]; YES1, Run 1): 87.6%
- % activity ([3]; YES1, Run 2): 109%
- % Inhibition Run 1 [4]: 72.1%
- % Inhibition Run 2 [4]: 76%
- % Inhibition, Mean [4]: 74%
- mean % activity [4]: 26%
- % activity ([4]; Run 1): 27.9%
- % activity ([4]; Run 2): 24%
- % Inhibition Run 1 ([5]; MKK6): 75.4%
- % Inhibition Run 2 ([5]; MKK6): 83.7%
- % Inhibition, Mean ([5]; MKK6): 80%
- mean % activity ([5]; MKK6): 20%
- % activity ([5]; MKK6, Run 1): 24.6%
- % activity ([5]; MKK6, Run 2): 16.3%
- % Inhibition Run 1 ([6]; CK2): -0.5%
- % Inhibition Run 2 ([6]; CK2): 5.6%
- % Inhibition, Mean ([6]; CK2): 2.55%
- mean % activity ([6]; CK2): 97%
- % activity ([6]; CK2, Run 1): 100.5%
- % activity ([6]; CK2, Run 2): 94.4%
- % Inhibition Run 1 [7]: 97.2%
- % Inhibition Run 2 [7]: 98.1%
- % Inhibition, Mean [7]: 98%
- mean % activity [7]: 2.35%
- % activity ([7]; Run 1): 2.8%
- % activity ([7]; Run 2): 1.9%
- % Activity inhibition Mean [7]: 97.7%
- % Activity inhibition Run 1 [7]: 97.2%
- % Activity inhibition Run 2 [7]: 98.1%
- % Activity remaining Run 1 [7]: 2.80%
- % Activity remaining Run 2 [7]: 1.90%
- % Inhibition Run 1 ([8]; TESK1): 16.1%
- % Inhibition Run 2 ([8]; TESK1): -16.2%
- % Inhibition, Mean ([8]; TESK1): -0.05%
- mean % activity ([8]; TESK1): 100%
- % activity ([8]; TESK1, Run 1): 83.9%
- % activity ([8]; TESK1, Run 2): 116.2%

Compound: CC(=O)[O-].CC(=O)[O-].CC(=O)[O-].CC(=O)[O-].CC(=O)[O-].CC(=O)[O-].[Zn+2].[Zn+2].[Zn+2].c1ccc(-c2csc(NCCN(CCNc3nc(-c4ccccn4)cs3)CCNc3nc(-c4ccccn4)cs3)n2)nc1.c1ccc(-c2csc(NCCN(CCNc3nc(-c4ccccn4)cs3)CCNc3nc(-c4ccccn4)cs3)n2)nc1 [[L2Zn3]6+]
- % Inhibition, Mean ([1]; TAK1): 35%
- % Inhibition, Run 1 / Run 2 ([1]; TAK1): 34% and 36%
- mean % activity ([1]; TAK1): 65%
- % activity ([1]; TAK1, duplicate runs): 66% and 64%
- % Inhibition, Mean ([2]; CHK2): 22%
- mean % activity ([2]; CHK2): 78%
- % activity ([2]; CHK2, duplicate runs): 64% and 92%
- % Inhibition, Mean ([3]; YES1): 8%
- % Inhibition, Run 1 / Run 2 ([3]; YES1): 7% and 8%
- mean % activity ([3]; YES1): 92%
- % activity ([3]; YES1, duplicate runs): 93% and 92%
- % Inhibition, Mean [4]: 17%
- mean % activity [4]: 83%
- % activity ([4]; duplicate runs): 68% and 99%
- % Inhibition, Mean ([5]; MKK6): 48%
- % Inhibition, Run 1 / Run 2 ([5]; MKK6): 59% and 37%
- mean % activity ([5]; MKK6): 52%
- % activity ([5]; MKK6, duplicate runs): 41% and 63%
- % Inhibition, Mean ([6]; CK2): 13%
- % Inhibition, Run 1 / Run 2 ([6]; CK2): 15% and 12%
- mean % activity ([6]; CK2): 87%
- % activity ([6]; CK2, duplicate runs): 85% and 88%
- % Inhibition, Mean [7]: 93%
- % Inhibition, Run 1 / Run 2 [7]: 94% and 92%
- mean % activity [7]: 7%
- % Activity inhibition Mean [7]: 93.0%
- % Activity inhibition Run 1 [7]: 94%
- % Activity inhibition Run 2 [7]: 92%
- % Activity remaining Run 1 [7]: 6%
- % Activity remaining Run 2 [7]: 8%
- % activity ([7]; duplicate runs): 6.4% and 8%
- % Inhibition, Mean ([8]; TESK1): 25%
- % Inhibition, Run 1 / Run 2 ([8]; TESK1): 34% and 17%
- mean % activity ([8]; TESK1): 75%
- % activity ([8]; TESK1, duplicate runs): 66% and 83%
